According to US6740680B1, “Pharmaceutical compositions to tetrac and methods of use thereof” (Becton Pharma, Inc., priority 1999, dated 2004):

Experiments:
[1] = system: monodeiodinase type 1 mRNA; experiment: Northern blot, hepatic monodeiodinase type 1 mRNA; type: in vivo, rat; conditions: Liver
Description: (§1) Seventy-nine male SIVZ rats were purchased from the breeder (Institut für Labortierkunde des Universität Zürich, Zürich, Switzerland). They were rendered hypothyroid by a single injection of [^131I]Na (100 μCi/rat) and before and throughout the experiment 0.02% 2-mercapto-1-methylimidazol (MMI) was added to drinking water. In order to have an euthyroid control group of similar weight and identical age, 10 rats received only MMI in the drinking water and 2 weeks before implanting the minipumps, MMI was withdrawn. Osmotic minipumps (secretion rate 0.25 μl/hour, duration 14 days) were implanted intraperitoneally (i.p.) 2 months after the injection of [^131I]Na. The minipumps were filled with T4 or Tetrac dissolved in 0.05 N NaOH, 2% BSA and 100,000 cpm [^125I]T4 or [^125I]Tetrac as control of their secretion rates. The infusion lasted 13 days. 0, 1.5, 4.5, 13.5 and 40.5 nmol Tetrac/day/100 g or 0.5, 1.5, 4.5 and 13.5 nmol T4/day/100 g bodyweight (BW) (n=4/dose) were infused. An euthyroid control group was included. The animals were weighed every 2 days. Rats were sacrificed by decapitation and blood was collected and stored at −200° C. until use. Tissues (liver, heart, brown adipose tissue, cerebral cortex and pituitary) were removed rapidly, frozen in liquid nitrogen and stored at −700° C. until use.
(§2) Total RNA extraction and Northern Blot hybridization Total RNA was extracted with the method of Chomczynski and Sacchi (Chomczynski, P. and Sacchi, N. Anal. Biochem. (1987) 162: 156-159). […]
(§3) The amount of labeled mRNA was quantified by scanning laser densitometry (Phosphorimager, Molecular Dynamics; Sunnyvale, USA). Variations in RNA loading and membrane transfer were corrected by densitometric quantification of a negative photograph of 28S and 18S ribosomal RNA bands from ethidium bromide stained RNA gels. […]

α-MHC mRNA = experiment: Northern blot, α-MHC mRNA in heart; type: in vivo, rat; conditions: infused rats, adjusted group mean at the mean Ln (TSH) concentration
Description: as §1, §2, §3

TSH [2] = experiment: Suppression of TSH by Tetrac in humans
Description: A patient receiving 200 μg/day dose of T4 was withdrawn from T4 treatment and treated with Tetrac for 21 days with a dose of 2100 μg/day.

Monodeiodinase type 1 = Monodeiodinase type 1 activity in liver and heart homogenates of infused rats; type: in vivo, rat
Description: as §1
Monodeiodinase type 1 and 2 activities. Monodeiodinase type 1 and type 2 activities were determined in tissue homogenates by measuring the release of radioiodide from [^125I]rT3 according to the method of Leonard and Rosenberg (Leonard, J. L. et al. Endocrinology (1980) 106: 444-451).
Monodeiodinase type 1 activity was measured in liver homogenates using 1 μM rT3 and 1 mM DTT with 10 min of incubation, whereas for heart, 0.01 μM rT3 and 10 mM DTT with 1 hour of incubation. Monodeiodinase type 2 activity was measured in brown adipose tissue (BAT) and cerebral cortex using 1 nM rT3, 10 mM DTT and 1 mM propylthiouracil (PTU) with 1 hour of incubation. Protein concentrations were measured by the method of Bradford (Bio-Rad Laboratories GmbH, Munich, Germany) with bovine gammaglobulin as the protein standard. In order to study the effect of circulating Tetrac on the enzyme activities, 2 rats were injected intraperitoneally with 10 μCi ^125I Tetrac and killed 6 hours later. The tissue homogenates were extracted with 3 volumes of ethanol-NH3 (97:3). After 10 minutes centrifugation at 15,000 g, the supernatant was vacuum dried and applied to TLC (Merck 254, Toluol, acetic acid, water: 2:2:1). In order to calculate the tissue concentrations, the highest serum Tetrac levels were used (406 pmol/ml). The calculated tissue concentrations were: liver: 1.9, heart: 2.29 and brain cortex: 0.47 fluol Tetrac/μg protein.

TSH [3] = experiment: Serum TSH in hypothyroid rats infused with Tetrac or T4; type: in vivo, rat; conditions: for Serum TSH: hypothyroid rats, mean ± SEM
Description: Seventy-nine male SIVZ rats were purchased from the breeder (Institut für Labortierkunde des Universität Zürich, Zürich, Switzerland). […] The infusion lasted 13 days. […] An euthyroid control group was included. The animals were weighed every 2 days. Rats were sacrificed by decapitation and blood was collected and stored at […] until use. Tissues (liver, heart, brown adipose tissue, cerebral cortex and pituitary) were removed rapidly, frozen in liquid nitrogen and stored at […] until use.
Hornone assays. […] Endocrinol. […] Serum TSH measurements were performed with reagents kindly provided by the National Pituitary Program, NIAMDD, NIH (Bethesda, USA).

[4] = system: monodeiodinase type 2 mRNA; experiment: Northern blot, monodeiodinase type 2 mRNA in pituitary; type: in vivo, rat; conditions: FIG. 5b, compared with T4, p=0.001
Description: as §1, with “Rats were sacrificed by decapitation and blood was collected and stored at −200° C. until use. Tissues (liver, heart, brown adipose tissue, cerebral cortex and pituitary) were removed rapidly, frozen in liquid nitrogen and stored at −700° C. until use.” left out
as §3

GH mRNA = experiment: Northern blot, growth hormone mRNA in pituitary; type: in vivo, rat
Description: as §1, §2, §3

β-MHC mRNA = experiment: Northern blot, β-MHC mRNA in heart; type: in vivo, rat
Description: as §1, §2, §3

[5] = infused rats, adjusted group mean at the mean Ln (TSH) concentration

## O=C(O)Cc1cc(I)c(Oc2cc(I)c(O)c(I)c2)c(I)c1 [Tetrac, 3,3′,5,5′-tetraiodothyroacetic acid]
[1]; at equal serum TSH concentration
  Residual Monodeiodinase type 1 mRNA, Tetrac/T4 (activity of Tetrac in % of T4): 49%
[1]; [5]
  Residual Monodeiodinase type 1 mRNA, adjusted mean: 2.48 arbitrary units
α-MHC mRNA
  α-MHC mRNA, adjusted mean: 5.3 arbitrary units
TSH [2]; one patient withdrawn from T4, Tetrac 2100 μg/day, after 21 days
  TSH after treatment: 6.3 mU/L
TSH [2]; same patient, start of Tetrac treatment
  TSH before treatment (after T4 withdrawal): 151.0 mU/L
Monodeiodinase type 1; Liver, at equal serum TSH concentration
  Residual Monodeiodinase type 1 activity, Tetrac/T4 (activity of Tetrac in % of T4): 59%
Monodeiodinase type 1; Liver, infused rats, adjusted group mean at the mean Ln (TSH) concentration
  Residual Monodeiodinase type 1 activity, adjusted mean: 106
Monodeiodinase type 1; heart, FIG. 2a, compared to T4, p<0.001
  Cardiac monodeiodinase type 1 activity, response to increasing doses (in words): weak response
TSH [3]; infusion 1.5 nmol/day/100 g BW
  Serum TSH: 90.3 ± 8.6 ng/mL
TSH [3]; infusion 4.5 nmol/day/100 g BW
  Serum TSH: 4.6 ± 0.5 ng/mL
TSH [3]; infusion 13.5 nmol/day/100 g BW
  Serum TSH: 1.2 ± 0.3 ng/mL
TSH [3]; infusion 40.5 nmol/day/100 g BW
  Serum TSH: <0.8 ng/mL
TSH [3]; mean over all dose levels of the treated rats, p=<0.04
  Serum TSH concentration, mean of treatment group: 24 ng/mL
[4]
  Inhibition of the mRNA levels of monodeiodinase type 2 (in words): clearly less efficient
GH mRNA
  GH mRNA, Tetrac/T4 (activity of Tetrac in % of T4): 71%
GH mRNA; [5]
  GH mRNA, adjusted mean: 20280 arbitrary units
β-MHC mRNA
  β-MHC mRNA, Tetrac/T4 (activity of Tetrac in % of T4): 66%
β-MHC mRNA; [5]
  β-MHC mRNA, adjusted mean: 328 arbitrary units
